The source of these data is patent publication US20240050562A1, “INHIBITOR OF CELL PROLIFERATION IN OBINUTUZUMAB RESISTANT CD20-POSITIVE CANCER, AND MEDICINAL COMPOSITION, MEDICINE, PRODUCTION, METHOD FOR INHIBITING CELL PROLIFERATION, THERAPEUTIC METHOD, TYPE II ANTI-CD20 ANTIBODY, COMPOUNDS, COMBINATION OF SAME, ENHANCER AND INDUCER, EACH RELATING THERETO” (Chugai Seiyaku Kabushiki Kaisha, priority 2019, published 2024).

Where a SMILES comes first, the peptide text is derived from it. The star is where a group is joined. Cbz = O=C(OCc1ccccc1)*; CH2F = FC*

The subject of data set [1] is obinutuzumab-directed cell death-tolerant clone 1A2. The note with it: four days; for effect of combined use with obinutuzumab (Bliss independence): log10(both agents) - log10(obinutuzumab alone) - log10(anti-cancer agent alone): obinutuzumab 1 μg/mL + 4-hydroperoxycyclophosphamide 100 nM, doxorubicin 10 nM, vincristine 1 nM or prednisolone 1 μM, <0 supra-additive, 0 additive, >0 sub-additive. How it is done: (§1) After four days of culturing at 37° C. in the presence of 5% CO2, the number of viable cells was measured using CellTiter-Glo 3D Cell Viability Assay (Promega). […] The effects of the combined use were assessed by numerical values obtained as follows: login (proportion of cell proliferation when both agents were added)—log10 (proportion of cell proliferation when obinutuzumab was added alone)—log10 (proportion of cell proliferation when the anti-cancer agent was added alone). Here, for the combined use, a numerical value of less than 0 means a supra-additive effect, 0 means an additive effect, and greater than 0 means a sub-additive effect (J Biopharm Stat. 2012; 22(3): 535-543).
The obinutuzumab-directed cell death-tolerant clone 1A2 was seeded at 1×10^4 cells per well in 96-well plates, and obinutuzumab (0.00015-10 μg/mL) and prednisolone (0.2, 1 μM) were added. After four days of culturing at 37° C. in the presence of 5% CO2, the number of viable cells was measured using CellTiter-Glo 3D Cell Viability Assay (Promega).
(§2) After four days of culturing at 37° C. in the presence of 5% CO2, the number of viable cells was measured using CellTiter-Glo 3D Cell Viability Assay (Promega).
as §2

Data set [2] deals with obinutuzumab-directed cell death-tolerant clone 1D2. As to the kind of experiment: combined-use cell proliferation test (CellTiter-Glo 3D), clone 1D2. It counts as cell-based, human. The note with it: obinutuzumab 1 μg/mL + 4-hydroperoxycyclophosphamide 100 nM, doxorubicin 10 nM, vincristine 1 nM or prednisolone 1 μM, four days, <0 supra-additive, 0 additive, >0 sub-additive. How it is done: as §1
For orientation: Cellular ATP, detected with luciferase, serves as a proxy for viable cell number.

Data set [3] concerns RL parent cell line and ADCC-tolerant cell lines RL-E300-1, RL-E300-2, RL-E300-8, RL-E300-22. Nature of the data set: ADCC sensitivity (calcein release, CD16(158V)/NK-92 effector cells). The class given is cell-based, human. The note with it: ET ratio 1:1. The procedure:
Obinutuzumab was added at a concentration of 0.0001-100 ng/mL. CD16(158V)/NK-92 cells were added as effector cells to achieve an ET ratio of 1:1 and the cells were incubated at 37° C. for four hours. In addition, for Maximum Lysis, 1% Triton X-100 was added. After the plates were centrifuged and the supernatants were collected, calcein fluorescence was measured using a plate reader. ADCC sensitivity was assessed with the expression (measurement−background)/(Maximum Lysis−background)×100 (%).
The parent RL cell line and the tolerant cell lines were pre-cultured, with prednisolone (10 μM) added, at 37° C. for 72 hours. […] Obinutuzumab was added at a concentration of 1 ng/mL. CD16(158V)/NK-92 cells were added thereto as effector cells to achieve an ET ratio of 1:1, and the cells were incubated at 37° C. for four hours. In addition, for Maximum Lysis, 1% Triton X-100 was added. After the plates were centrifuged and the supernatants were collected, calcein fluorescence was measured using a plate reader. ADCC sensitivity was assessed with the expression (measurement−background)/(Maximum Lysis−background)×100 (%).

Data set [4] relates to CD20 on RL parent and ADCC-tolerant cell lines. As to the kind of experiment: CD20 expression by FACS. The note with it: prednisolone 10 μM, 72 hours; parent RL cell line and tolerant cell lines; FIG. 10. The class given is cell-based, human. How it is done: The parent RL cell line and the tolerant cell lines were seeded at 4×10^5 cells per plate, prednisolone (10 μM) was added, and the cells were cultured at 37° C. for 72 hours. The cells were collected and stained with a control IgG antibody or an anti-CD20 antibody (BD Biosciences), and analysis of CD20 expression was carried out using FACS Fortessa (Becton Dickinson).
(A flow cytometer gives signals particle by particle.)

Data set [5] deals with obinutuzumab-directed cell death-tolerant clones 1A2, 1D2, 3A4 (derived from SU-DHL-4). How it is done:
The human germinal center B-cell-like diffuse large B-cell lymphoma cell line SU-DHL-4 was treated with 100 μg/mL of N-ethyl-N-nitrosourea for 24 hours to randomly introduce gene mutations. Thereafter, obinutuzumab was added to 200 μg/mL, and culturing was carried out at 37° C. in the presence of 5% CO2 for three weeks.
as §1

Data set [6] relates to obinutuzumab-directed cell death-tolerant clone 3A4. The conditions noted are these: obinutuzumab 1 μg/mL + 4-hydroperoxycyclophosphamide 100 nM, doxorubicin 10 nM, vincristine 1 nM or prednisolone 1 μM, four days, <0 supra-additive, 0 additive, >0 sub-additive. The procedure:
as §1

The subject of data set [7] is obinutuzumab-directed cell death-tolerant clone 1A2. The class given is cell-based. The conditions noted are these: Z-VAD-FMK 40 μM added to obinutuzumab 1 μg/mL + doxorubicin 10 nM, 72 hours, FIG. 7. The procedure:
[…] After 72 hours of culturing at 37° C. in the presence of 5% CO2, cells were stained with APO-BrdU TUNEL Assay Kit (Thermo Fisher).
After 72 hours of culturing at 37° C. in the presence of 5% CO2, cells were stained with APO-BrdU TUNEL Assay Kit (Thermo Fisher).

Data set [8] deals with SU-DHL-4. As to the kind of experiment: four-day cell proliferation test, parent cell line. The conditions noted are these: SU-DHL-4, four-day cell proliferation test. The class given is cell-based, human.

For `CC[C@]1(O)C[C@H]2CN(CCc3c([nH]c4ccccc34)[C@@](C(=O)OC)(c3cc4c(cc3OC)N(C=O)[C@H]3[C@@](O)(C(=O)OC)[C@H](OC(C)=O)[C@]5(CC)C=CCN6CC[C@]43[C@@H]65)C2)C1` [vincristine], the “effect of combined use with obinutuzumab (Bliss independence): log10(both agents) - log10(obinutuzumab alone) - log10(anti-cancer agent alone)” value (shortened to “effect … - log10(anti-cancer agent alone)”) in data set [1] was −0.35; in data set [2] it was −0.10.
For the compound `C[C@]12C=CC(=O)C=C1CC[C@@H]1[C@@H]2[C@@H](O)C[C@@]2(C)[C@H]1CC[C@]2(O)C(=O)CO` [prednisolone], the “effect … - log10(anti-cancer agent alone)” value in data set [2] was −0.10. The “ADCC sensitivity after prednisolone pre-treatment” value in data set [3] (prednisolone 10 μM 72 hours pre-culture, then obinutuzumab 1 ng/mL, parent and tolerant cell lines, FIG. 11) is reported as “enhances ADCC sensitivity”. The CD20 expression result in data set [4] is on record as “enhances CD20 expression”.
`O=P1(N(CCCl)CCCl)NC(OO)CCO1` (centres unmarked) [4-hydroperoxycyclophosphamide]: the “effect of combined use with obinutuzumab, in words” value in data set [5] (all tolerant clones, combined with obinutuzumab 1 μg/mL, four days) is recorded as “approximately additive effects”. Also, the results for the “effect … - log10(anti-cancer agent alone)” value in data set [1], in data set [2] and in data set [6] were −0.03, 0.02 and 0.00, respectively.
`COC(=O)C[C@H](NC(=O)[C@H](C)NC(=O)[C@@H](NC(=O)OCc1ccccc1)C(C)C)C(=O)CF` [Z-VAD-FMK] (Cbz-Val-Ala-Asp(OMe)-CH2F): the “cell proliferation ratio with pan caspase inhibitor” value in data set [1] (Z-VAD-FMK 40 μM added to obinutuzumab 0.1, 1 μg/mL + doxorubicin 10 nM, FIG. 8) is given as “suppressed the doxorubicin-enhanced inhibitory activity of obinutuzumab on cell proliferation”. The “DNA fragmentation (TUNEL) induced by obinutuzumab and doxorubicin, with pan caspase inhibitor” value in data set [7] is given as “suppressed”.
As for “obinutuzumab: glycoengineered, genetically recombinant humanized anti-CD20 monoclonal antibody, type II anti-CD20 antibody”, the “obinutuzumab concentration for 50% cell proliferation inhibition” value in data set [8] was 0.037 µg/mL; in data set [5] it was “at least 200 μg/mL”. Further, in data set [3] (obinutuzumab 0.0001-100 ng/mL, four hours, FIG. 9), the “ADCC sensitivity of ADCC-tolerant cell lines compared with the parent cell line” value was “significant reduction in ADCC sensitivity”.
